The values below come from patent US20250257086A1, “EGFR DEGRADATION AGENT” (Beijing Tide Pharmaceutical Co., Ltd., priority 2022, published 2025).

Read-outs that look alike come from different tables or passages of the source.

What all share (assay type): cell-based
The target of assay [1] is Ba/F3 (EGFR^L858R/T790M/C797S) cells (Homo sapiens, UniProt P00533, T790M/C797S/L858R, cells depend on it). The experiment in a line: Antiproliferative activity on Ba/F3 (EGFR L858R/T790M/C797S) cells (CTG). The procedure, abridged:
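Luminescent CellTiter-Glo read-out on Ba/F3 cells carrying EGFR L858R/T790M/C797S. Inhibition normalised between untreated vehicle and a 10 μM positive drug. IC50 taken from a variable-slope four-parameter fit of inhibition against log compound concentration.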

For assay [2], the system named is H1975 (EGFR^L858R/T790M) cells. The experiment in a line: Antiproliferative activity on H1975 (EGFR L858R/T790M) cells (CTG). The note with it: Homo sapiens, read-out: IC50 (nM), antiproliferative activity. As to the method:
30 nL of the compound dilution was added to a 384-well plate by Echo (Labcyte, Echo550).
The percent inhibition rate (% inhibition) was calculated by the following formula
[formula] • LUMcmpd: Luminescence value of assay compound. • LUMpositive: Average LUM value of positive drug with a concentration of 10 μM. • LUMvehicle: Average LUM value of negative control group without drug treatment.
The nonlinear regression curve (dose response-variable slope) between the value of inhibition rate (%) and the logarithm of compound concentration was fitted with graphpad prism 8.0, the effect dose curve of compound was drawn, and the IC50 value was calculated.
Y=Bottom+(Top−Bottom)/(1+10^((Log IC50−X)*HillSlope)) • X-axis: logarithm of compound concentration; Y axis: inhibition rate (inhibition).

The target in assay [3] is T1, EGFR^L858R/T790M/C797S protein (Homo sapiens, UniProt P00533, C797S/L858R/T790M).
T1 construct: expressed in transfected cells; host or cells: Ba/F3 (EGFR^L858R/T790M/C797S) cells
T1 sequence (P00533 25-1210 T790M/C797S/L858R): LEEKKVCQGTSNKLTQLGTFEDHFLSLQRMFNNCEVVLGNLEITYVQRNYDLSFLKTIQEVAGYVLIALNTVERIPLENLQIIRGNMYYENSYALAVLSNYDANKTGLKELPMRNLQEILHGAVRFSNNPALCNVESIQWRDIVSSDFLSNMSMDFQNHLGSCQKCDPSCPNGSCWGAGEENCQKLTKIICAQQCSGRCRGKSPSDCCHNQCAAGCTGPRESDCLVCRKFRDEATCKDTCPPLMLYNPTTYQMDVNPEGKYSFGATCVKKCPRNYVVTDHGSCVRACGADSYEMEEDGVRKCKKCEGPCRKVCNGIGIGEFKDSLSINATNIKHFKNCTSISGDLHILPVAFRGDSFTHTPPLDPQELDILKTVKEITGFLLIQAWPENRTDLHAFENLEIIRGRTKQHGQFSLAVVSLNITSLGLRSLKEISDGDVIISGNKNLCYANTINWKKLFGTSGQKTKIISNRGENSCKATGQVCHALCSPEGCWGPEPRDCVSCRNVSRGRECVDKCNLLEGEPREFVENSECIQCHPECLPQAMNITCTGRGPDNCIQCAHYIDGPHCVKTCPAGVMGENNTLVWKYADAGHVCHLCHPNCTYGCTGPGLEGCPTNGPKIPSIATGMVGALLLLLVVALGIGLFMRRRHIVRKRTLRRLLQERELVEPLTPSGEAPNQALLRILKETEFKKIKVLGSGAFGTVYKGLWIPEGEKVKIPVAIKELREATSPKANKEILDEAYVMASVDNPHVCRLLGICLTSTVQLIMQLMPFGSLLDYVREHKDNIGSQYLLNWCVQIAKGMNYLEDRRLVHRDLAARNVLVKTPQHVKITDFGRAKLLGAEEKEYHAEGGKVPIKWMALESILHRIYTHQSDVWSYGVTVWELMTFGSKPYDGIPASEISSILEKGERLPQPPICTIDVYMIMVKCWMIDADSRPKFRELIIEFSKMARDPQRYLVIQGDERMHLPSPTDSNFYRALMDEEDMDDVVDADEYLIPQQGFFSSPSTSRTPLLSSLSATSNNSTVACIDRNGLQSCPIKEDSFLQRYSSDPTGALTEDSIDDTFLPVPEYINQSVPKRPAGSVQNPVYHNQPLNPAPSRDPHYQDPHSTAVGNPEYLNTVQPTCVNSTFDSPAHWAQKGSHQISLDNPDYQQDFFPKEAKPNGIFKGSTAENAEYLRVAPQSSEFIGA
The experiment in a line: Induction of EGFR L858R/T790M/C797S protein degradation in Ba/F3 cells (Alpha counts). The following applies: 24h treatment; for degradation effect on EGFR^L858R/T790M/C797S protein (in words): FIG. 1 and 2; for DC50: range 1 nM to 1000 nM, FIG. 1 and 2, read-out: DC50, reduction of EGFR^L858R/T790M/C797S protein level. As for the experimental part:
(§1) Ba/F3 (EGFR^L858R/T790M/C797S) and Ba/F3 (EGFR^Del19/T790M/C797S) cells were cultured according to the culture conditions recommended by ATCC, and analyzed by index.
(§2) Culture conditions: incubated at 37° C., 95% air, 5% CO2 incubator.
(§3) (2) Compound Stock Solution: 10 mM Stock Solution in DMSO, Stored at −20° C.
(§4) The cells in the cell culture bottle were collected, and the cells with viability of >90% can be used in the assay. Cells were seeded in a 96-well plate with 40 μL cells, 1*10^5 cells/well.
(§5) The compounds were serially diluted 3× with DMSO, with the starting concentrations of the compounds being 1.0 mM (EGFR^L858R/T790M/C797S assay) and 10 mM (EGFR^Del19/T790M/C797S assay), respectively, into 10 concentrations to prepare working solutions.
(§6) (5) Compound was Pipetted into the 96-Well Plate to Treat Cells in a 37° C., 95% Air, 5% CO2 Incubator for 24h.
(§7) • 1) 1 μg/mL EGF stimulated cells for 10 min; • 2) After the compound treatment was completed, lysis buffer was added to lyse cells; 10 μL of cell lysate was transferred to the 384-well plate; in addition, control lysate, negative control and 5 μL of acceptor mix were added to the 384-well plate; The plate was shaken on a shaker for 1-2 min; • 3) 5 μL of donor mix was added to each well; the 384-well plate was sealed, shaken on a shaker for 1-2 min, and left in the dark at room temperature overnight; then the plate was read with ELISA reader.
(§8) Alpha counts were fitted by logarithmic treatment of compound concentration with Graphpad Prism 8.0.
(§9) [formula] • X: logarithm of compound concentration; Y: Alpha Counts.

In assay [4] the target is T2, EGFR^Del19/T790M/C797S protein (Homo sapiens, UniProt P00533, C797S/DEL746-750/T790M).
T2 construct: expressed in transfected cells; host or cells: Ba/F3 (EGFR^Del19/T790M/C797S) cells
T2 sequence (P00533 with tags, fused parts or gaps DEL746-750/T790M/C797S): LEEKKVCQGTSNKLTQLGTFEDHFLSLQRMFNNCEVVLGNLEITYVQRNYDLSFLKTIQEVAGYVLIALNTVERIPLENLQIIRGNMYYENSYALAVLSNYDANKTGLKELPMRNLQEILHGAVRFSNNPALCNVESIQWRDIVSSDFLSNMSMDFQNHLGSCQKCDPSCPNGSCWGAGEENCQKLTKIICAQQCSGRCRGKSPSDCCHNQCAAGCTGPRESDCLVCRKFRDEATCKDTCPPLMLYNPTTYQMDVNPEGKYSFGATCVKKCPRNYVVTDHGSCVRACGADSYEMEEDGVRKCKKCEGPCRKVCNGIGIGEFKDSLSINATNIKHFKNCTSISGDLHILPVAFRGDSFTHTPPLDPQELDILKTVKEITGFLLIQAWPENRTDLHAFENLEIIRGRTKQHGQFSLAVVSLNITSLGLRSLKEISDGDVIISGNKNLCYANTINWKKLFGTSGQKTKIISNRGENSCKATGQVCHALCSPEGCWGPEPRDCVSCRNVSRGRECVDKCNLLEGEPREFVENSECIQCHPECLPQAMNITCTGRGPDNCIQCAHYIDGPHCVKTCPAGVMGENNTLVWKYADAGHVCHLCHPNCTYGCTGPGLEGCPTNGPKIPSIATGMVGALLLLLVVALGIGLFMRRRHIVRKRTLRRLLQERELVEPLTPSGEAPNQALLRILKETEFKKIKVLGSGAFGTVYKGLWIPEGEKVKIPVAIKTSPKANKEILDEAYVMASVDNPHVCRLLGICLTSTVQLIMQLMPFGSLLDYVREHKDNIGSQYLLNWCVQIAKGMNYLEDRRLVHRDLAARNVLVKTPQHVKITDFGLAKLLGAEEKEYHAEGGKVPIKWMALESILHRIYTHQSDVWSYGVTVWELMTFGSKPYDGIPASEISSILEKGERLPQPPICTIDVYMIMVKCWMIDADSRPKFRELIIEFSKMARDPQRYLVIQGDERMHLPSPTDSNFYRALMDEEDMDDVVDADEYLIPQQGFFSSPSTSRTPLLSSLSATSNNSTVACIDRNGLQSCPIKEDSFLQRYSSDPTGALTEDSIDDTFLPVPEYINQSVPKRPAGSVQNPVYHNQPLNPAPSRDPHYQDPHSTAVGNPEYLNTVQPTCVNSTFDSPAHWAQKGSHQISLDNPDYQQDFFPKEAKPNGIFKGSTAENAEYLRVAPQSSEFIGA
Description: Induction of EGFR Del19/T790M/C797S protein degradation in Ba/F3 cells (Alpha counts). The note with it: 24h treatment. As to the method:
as §1, §2, §3, §4, §5, §6, §7, §8, §9

[5] abbreviates: NCI-H1975, H1975 (EGFR^L858R/T790M) cells, 72h incubation, CTG luminescence.
Setting [6] is: 72h incubation, CTG luminescence, read-out: IC50 (nM), antiproliferative activity.

Sequence of Ba/F3 (EGFR^L858R/T790M/C797S) cells (P00533 whole entry T790M/C797S/L858R): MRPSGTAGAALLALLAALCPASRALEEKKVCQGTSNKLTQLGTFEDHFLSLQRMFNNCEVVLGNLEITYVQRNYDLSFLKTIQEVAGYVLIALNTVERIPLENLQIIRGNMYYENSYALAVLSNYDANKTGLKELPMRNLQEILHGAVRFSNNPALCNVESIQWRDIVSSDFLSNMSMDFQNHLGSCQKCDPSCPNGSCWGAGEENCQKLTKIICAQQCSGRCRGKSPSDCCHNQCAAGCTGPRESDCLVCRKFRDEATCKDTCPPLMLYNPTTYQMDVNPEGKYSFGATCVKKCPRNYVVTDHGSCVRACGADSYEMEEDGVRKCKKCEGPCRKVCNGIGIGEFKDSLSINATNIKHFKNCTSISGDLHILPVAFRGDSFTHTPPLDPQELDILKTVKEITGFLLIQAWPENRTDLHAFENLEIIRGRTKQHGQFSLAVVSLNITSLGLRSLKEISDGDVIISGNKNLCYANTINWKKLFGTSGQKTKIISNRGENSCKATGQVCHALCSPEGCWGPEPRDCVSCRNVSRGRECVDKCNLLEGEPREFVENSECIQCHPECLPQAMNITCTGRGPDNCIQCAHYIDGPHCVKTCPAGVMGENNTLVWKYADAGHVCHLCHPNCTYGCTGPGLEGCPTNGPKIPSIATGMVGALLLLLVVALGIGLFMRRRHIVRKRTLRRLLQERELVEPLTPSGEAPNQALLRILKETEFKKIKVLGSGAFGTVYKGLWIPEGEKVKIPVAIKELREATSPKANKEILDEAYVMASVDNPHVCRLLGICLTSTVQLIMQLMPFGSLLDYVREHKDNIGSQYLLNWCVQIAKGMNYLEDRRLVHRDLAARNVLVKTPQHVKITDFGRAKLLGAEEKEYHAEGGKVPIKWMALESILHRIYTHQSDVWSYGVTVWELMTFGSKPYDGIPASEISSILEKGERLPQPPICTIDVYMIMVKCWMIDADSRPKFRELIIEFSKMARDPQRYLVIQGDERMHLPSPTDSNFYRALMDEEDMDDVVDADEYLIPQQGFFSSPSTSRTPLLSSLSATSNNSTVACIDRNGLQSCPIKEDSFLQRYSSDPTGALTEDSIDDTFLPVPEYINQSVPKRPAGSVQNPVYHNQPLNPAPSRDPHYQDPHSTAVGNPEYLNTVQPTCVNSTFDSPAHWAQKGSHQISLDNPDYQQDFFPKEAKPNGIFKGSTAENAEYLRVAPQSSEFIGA

As a reminder, the IC50 is the midpoint of a concentration-inhibition curve. In the case of `COc1cc(N2CCC(N3CCN(C)CC3)CC2)ccc1Nc1ncc(Cl)c(Nc2ccccc2P(C)(C)=O)n1` [Brigatinib, reference compound], the GI50 in assay [1] (read-out: IC50 (nM), antiproliferative activity, 72h incubation, CTG luminescence) was 355 nM. The 50% inhibitory concentration (IC50) in assay [2] (setting [5]) was determined as 747 nM. For the same molecule, in assay [3], the “degradation effect on EGFR^L858R/T790M/C797S protein (in words)” value is “no degradation effect”.
On to `COc1cc(N2CCC(N3CCN(CCCC#Cc4cccc5c4CN(C4CCC(=O)NC4=O)C5=O)CC3)CC2)ccc1Nc1ncc(Cl)c(Nc2ccccc2P(C)(C)=O)n1` (stereo not shown) [Comparative compound C126], for which the half-inhibitory concentration (IC50) in assay [2] (setting [5]) came to 1390 nM.
Take `C=C(F)C(=O)Nc1cc(Nc2ncc(Cl)c(Nc3ccccc3P(C)(C)=O)n2)c(OC)cc1N1CCC(N2CCN(C)CC2)CC1` [Comparative compound L527, reference compound]: the GI50 in assay [1] (setting [6]) came out at 458 nM. For the same molecule, in assay [3], the “degradation effect on EGFR^L858R/T790M/C797S protein (in words)” value was “no degradation effect”.
For `C=C(F)C(=O)Nc1cc(Nc2ncc(Br)c(Nc3ccccc3P(C)(C)=O)n2)c(OC)cc1N1CCC(N2CCN(CCCC#Cc3cccc4c3CN(C3CCC(=O)NC3=O)C4=O)CC2)CC1` (stereo not shown) [Compound D078, N-(5-((5-bromo-4-((2-(dimethylphosphoryl)phenyl)amino)pyrimidin-2-yl)amino)-2-(4-(4-(5-(2-(2,6-dioxopiperidin-3-yl)-1-oxoisoindolin-4-yl)pent-4-yn-1-yl)piperazin-1-yl)piperidin-1-yl)-4-methoxyphenyl)-2-fluoroacrylamide], in assay [1] (setting [6]), the GI50 was determined as 19.2 nM. Moreover, in assay [3], the “degradation effect on EGFR^L858R/T790M/C797S protein (in words)” value is “significant degradation effect” and the DC50 came out at 84.7 nM.
In the case of `C=CC(=O)Nc1cc(Nc2ncc(Br)c(Nc3ccccc3P(C)(C)=O)n2)c(OC)cc1N1CCC(N2CCN(CCCC#Cc3cccc4c3CN(C3CCC(=O)NC3=O)C4=O)CC2)CC1` (stereo not shown) [Compound D478, N-(5-((5-bromo-4-((2-(dimethylphosphoryl)phenyl)amino)pyrimidin-2-yl)amino)-2-(4-(4-(5-(2-(2,6-dioxopiperidin-3-yl)-1-oxoisoindolin-4-yl)pent-4-yn-1-yl)piperazin-1-yl)piperidin-1-yl)-4-methoxyphenyl)acrylamide], in assay [1] (setting [6]), the GI50 is 30.3 nM. Further, the IC50 in assay [2] (setting [5]) amounted to 17.6 nM.
Turning to `C=C(F)C(=O)Nc1cc(Nc2ncc(Cl)c(Nc3ccccc3P(C)(C)=O)n2)c(OC)cc1N1CCC(N2CCN(CCCC#Cc3cccc4c3CN(C3CCC(=O)NC3=O)C4=O)CC2)CC1` (stereo not shown) [Compound D552, N-(5-((5-chloro-4-((2-(dimethylphosphoryl)phenyl)amino)pyrimidin-2-yl)amino)-2-(4-(4-(5-(2-(2,6-dioxopiperidin-3-yl)-1-oxoisoindolin-4-yl)pent-4-yn-1-yl)piperazin-1-yl)piperidin-1-yl)-4-methoxyphenyl)-2-fluoroacrylamide], the GI50 in assay [1] (setting [6]) is 37.3 nM. Moreover, in assay [3], the “degradation effect on EGFR^L858R/T790M/C797S protein (in words)” value is reported as “significant degradation effect” and the DC50 was 117 nM. Moreover, the “degradation effect on EGFR^Del19/T790M/C797S protein (in words)” value in assay [4] (FIG. 3) is given as “significant degradation effects”. Besides, the DC50 in assay [4] (range 1 nM to 10000 nM, FIG. 3, read-out: DC50, reduction of EGFR^Del19/T790M/C797S protein level) is 29.7 nM.
With `CC#CC(=O)Nc1cc(Nc2ncc(Br)c(Nc3ccccc3P(C)(C)=O)n2)c(OCC(F)(F)F)cc1N1CCC(N2CCN(CCCC#Cc3cccc4c3CN(C3CCC(=O)NC3=O)C4=O)CC2)CC1` (stereo not shown) [Compound D845, N-(5-((5-bromo-4-((2-(dimethylphosphoryl)phenyl)amino)pyrimidin-2-yl)amino)-2-(4-(4-(5-(2-(2,6-dioxopiperidin-3-yl)-1-oxoisoindolin-4-yl)pent-4-yn-1-yl)piperazin-1-yl)piperidin-1-yl)-4-(2,2,2-trifluoroethoxy)phenyl)but-2-ynamide], the GI50 in assay [1] (setting [6]) was 16.9 nM.
Same read-out and setting: the value for `C=C(F)C(=O)Nc1cc(Nc2ncc(Br)c(Nc3ccccc3P(C)(C)=O)n2)c(OCC(F)(F)F)cc1N1CCC(N2CCN(CCCC#Cc3cccc4c3CN(C3CCC(=O)NC3=O)C4=O)CC2)CC1` (stereo not shown) [Compound D846, N-(5-((5-bromo-4-((2-(dimethylphosphoryl)phenyl)amino)pyrimidin-2-yl)amino)-2-(4-(4-(5-(2-(2,6-dioxopiperidin-3-yl)-1-oxoisoindolin-4-yl)pent-4-yn-1-yl)piperazin-1-yl)piperidin-1-yl)-4-(2,2,2-trifluoroethoxy)phenyl)-2-fluoroacrylamide] was 11.9 nM; that for `CP(C)(=O)c1ccccc1Nc1nc(Nc2cc(NC(=O)/C=C/C(F)(F)F)c(N3CCC(N4CCN(CCCC#Cc5cccc6c5CN(C5CCC(=O)NC5=O)C6=O)CC4)CC3)cc2OCC(F)(F)F)ncc1Br` (stereo not shown) [Compound D847, (E)-N-(5-((5-bromo-4-((2-(dimethylphosphoryl)phenyl)amino)pyrimidin-2-yl)amino)-2-(4-(4-(5-(2-(2,6-dioxopiperidin-3-yl)-1-oxoisoindolin-4-yl)pent-4-yn-1-yl)piperazin-1-yl)piperidin-1-yl)-4-(2,2,2-trifluoroethoxy)phenyl)-4,4,4-trifluorobut-2-enamide] was 16.3 nM; that for `CCCC#CC(=O)Nc1cc(Nc2ncc(Br)c(Nc3ccccc3P(C)(C)=O)n2)c(OCC(F)(F)F)cc1N1CCC(N2CCN(CCCC#Cc3cccc4c3CN(C3CCC(=O)NC3=O)C4=O)CC2)CC1` (stereo not shown) [Compound D856, N-(5-((5-bromo-4-((2-(dimethylphosphoryl)phenyl)amino)pyrimidin-2-yl)amino)-2-(4-(4-(5-(2-(2,6-dioxopiperidin-3-yl)-1-oxoisoindolin-4-yl)pent-4-yn-1-yl)piperazin-1-yl)piperidin-1-yl)-4-(2,2,2-trifluoroethoxy)phenyl)hex-2-ynamide] was 27.4 nM.
Same read-out and setting: the value for `C=C(F)C(=O)Nc1cc(Nc2ncc(C(F)(F)F)c(Nc3ccccc3P(C)(C)=O)n2)c(OCC(F)(F)F)cc1N1CCC(N2CCN(CCCC#Cc3cccc4c3CN(C3CCC(=O)NC3=O)C4=O)CC2)CC1` (stereo not shown) [Compound D870, N-(5-((4-((2-(dimethylphosphoryl)phenyl)amino)-5-(trifluoromethyl)pyrimidin-2-yl)amino)-2-(4-(4-(5-(2-(2,6-dioxopiperidin-3-yl)-1-oxoisoindolin-4-yl)pent-4-yn-1-yl)piperazin-1-yl)piperidin-1-yl)-4-(2,2,2-trifluoroethoxy)phenyl)-2-fluoroacrylamide] was 8.87 nM; that for `COc1cc(N2CCC(N3CCN(CCCC#Cc4cccc5c4CN(C4CCC(=O)NC4=O)C5=O)CC3)CC2)c(C)cc1Nc1ncc(Br)c(Nc2ccc3nccnc3c2N(C)S(C)(=O)=O)n1` (stereo not shown) [Compound D932] was 36.7 nM.
The same measure, in the same setting: as for `C=C(F)C(=O)Nc1cc(Nc2ncc(Br)c(Nc3ccc4nccnc4c3NS(C)(=O)=O)n2)c(OC)cc1N1CCC(N2CCN(CCCC#Cc3cccc4c3CN(C3CCC(=O)NC3=O)C4=O)CC2)CC1` (stereo not shown) [Compound D933], the figure is 12.3 nM; as for `C=C(F)C(=O)Nc1cc(Nc2ncc(Br)c(Nc3ccc4nccnc4c3N(C)S(C)(=O)=O)n2)c(OC)cc1N1CCC(N2CCN(CCCC#Cc3cccc4c3CN(C3CCC(=O)NC3=O)C4=O)CC2)CC1` (stereo not shown) [Compound D934], 31.9 nM.
Consider `C=CC(=O)Nc1cc(Nc2nccc(-c3cn(C)c4ccccc34)n2)c(OC)cc1N(C)CCN(C)C` [Osimertinib], for which, in assay [2] (NCI-H1975, 72 h), the IC50 stood at 10.7 nM.
